Numbers after ± are expanded uncertainties.
What was measured:
[1] = for surface tension liquid-gas: Wilhelmy-plate method; for mass density: 100 kPa, Liquid, Vibrating tube method
[2] = xn = mol fraction of the nth substance listed; settings: for surface tension liquid-gas: Wilhelmy-plate method; for mass density: 100 kPa, Liquid, Vibrating tube method

surface tension liquid-gas ([1]; 298.15 K) [mN/m] | mass density ([1]; 298.15 K) [kg/m3] | surface tension liquid-gas ([1]; 308.15 K) [mN/m] | mass density ([1]; 308.15 K) [kg/m3] | surface tension liquid-gas ([1]; 318.15 K) [mN/m] | mass density ([1]; 318.15 K) [kg/m3] | surface tension liquid-gas ([1]; 328.15 K) [mN/m] | mass density ([1]; 328.15 K) [kg/m3] | other results | Compound
35.74 ± 0.2 | 1032.69 ± 0.05 | 35.35 ± 0.2 | 1025.21 ± 0.05 | 34.96 ± 0.2 | 1017.51 ± 0.04 | 34.6 ± 0.2 | 1009.78 ± 0.04 |  | CC(O)CO (centres undefined) [1,2-propanediol]
20.85 ± 0.05 | 781.18 ± 0.12 | 20.1 ± 0.05 | 772.32 ± 0.12 | 19.4 ± 0.05 | 763.61 ± 0.13 | 18.75 ± 0.05 | 754.84 ± 0.13 |  | CC(C)O [propan-2-ol]
 |  |  |  |  |  |  |  | surface tension liquid-gas ([2]; 298.15 K, x1 = 1): 20.85 ± 0.2 mN/m; mass density ([2]; 298.15 K, x1 = 1): 781.18 ± 0.12 kg/m3; surface tension liquid-gas ([2]; 308.15 K, x1 = 1): 20.1 ± 0.2 mN/m; mass density ([2]; 308.15 K, x1 = 1): 772.32 ± 0.12 kg/m3; surface tension liquid-gas ([2]; 318.15 K, x1 = 1): 19.4 ± 0.2 mN/m; mass density ([2]; 318.15 K, x1 = 1): 763.61 ± 0.13 kg/m3; surface tension liquid-gas ([2]; 328.15 K, x1 = 1): 18.75 ± 0.2 mN/m; mass density ([2]; 328.15 K, x1 = 1): 754.84 ± 0.13 kg/m3 | CC(C)O [propan-2-ol] + CC(O)CO
72.03 ± 0.2 |  | 70.3 ± 0.2 |  | 68.7 ± 0.2 |  | 66.9 ± 0.2 | 985.66 ± 0.04 |  | O [water]
 |  |  |  |  |  |  |  | surface tension liquid-gas ([2]; 298.15 K, x2 = 0): 72.03 ± 0.2 mN/m; surface tension liquid-gas ([2]; 308.15 K, x2 = 0): 70.3 ± 0.2 mN/m; surface tension liquid-gas ([2]; 318.15 K, x2 = 0): 68.7 ± 0.2 mN/m; surface tension liquid-gas ([2]; 328.15 K, x2 = 0): 66.9 ± 0.2 mN/m; mass density ([2]; 328.15 K, x2 = 0): 985.66 ± 0.04 kg/m3 | O [water] + CC(O)CO

— the NIST ThermoML archive (doi:10.1016/j.fluid.2014.12.040)
